The record followed here is ChEMBL document CHEMBL1201862, “PubChem BioAssay data set” (2004).

Activity calls are given as the source filed them.

For assay [1], the target named is T1, Tyrosyl-DNA phosphodiesterase 2 (Homo sapiens, UniProt O95551).
T1 sequence (O95551 whole entry): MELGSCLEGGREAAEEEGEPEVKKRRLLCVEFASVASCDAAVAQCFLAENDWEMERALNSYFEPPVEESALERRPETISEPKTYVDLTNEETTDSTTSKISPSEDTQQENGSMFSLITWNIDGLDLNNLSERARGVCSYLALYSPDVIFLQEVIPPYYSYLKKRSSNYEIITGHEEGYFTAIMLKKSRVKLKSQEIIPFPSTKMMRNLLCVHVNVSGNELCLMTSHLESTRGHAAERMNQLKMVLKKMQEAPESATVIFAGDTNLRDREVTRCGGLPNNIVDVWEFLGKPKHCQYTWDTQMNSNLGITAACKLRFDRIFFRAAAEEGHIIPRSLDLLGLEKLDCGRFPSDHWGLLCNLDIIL
The assay is described as follows: human TDP2 enzyme inhibitors, dose response, biochemical, epi absorbance, IC50 (AID 743297).

A further assay deals with T2, Streptokinase A (Streptococcus pyogenes serotype M1, UniProt P10520).
T2 sequence (P10520 whole entry): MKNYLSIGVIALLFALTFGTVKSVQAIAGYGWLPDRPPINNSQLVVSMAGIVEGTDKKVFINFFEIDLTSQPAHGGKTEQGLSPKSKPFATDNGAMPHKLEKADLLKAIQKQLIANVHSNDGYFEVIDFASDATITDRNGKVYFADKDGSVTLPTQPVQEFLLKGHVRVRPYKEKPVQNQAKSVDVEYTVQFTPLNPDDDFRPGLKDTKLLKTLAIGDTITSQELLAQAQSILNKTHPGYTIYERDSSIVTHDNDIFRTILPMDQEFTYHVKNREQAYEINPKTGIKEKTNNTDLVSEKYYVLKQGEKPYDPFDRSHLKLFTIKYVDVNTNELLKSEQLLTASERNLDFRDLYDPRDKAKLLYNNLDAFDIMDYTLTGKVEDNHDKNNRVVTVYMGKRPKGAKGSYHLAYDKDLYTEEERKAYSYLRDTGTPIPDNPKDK
The assay can be described thus: S. pyogenes streptokinase expression inhibitors, potency, dose response, plasminogen activation absorbance, OD405 (AID 1914).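 Note: secreted streptokinase activity via plasminogen activation per viability signal from cell pellet.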 It counts as functional, Streptococcus pyogenes M1 GAS.

In assay [2] the target is Voltage-gated N-type calcium channel alpha-1B subunit/Amyloid beta A4 precursor protein-binding family A member 1 (Homo sapiens, UniProt Q00975+Q02410). It counts as protein assay.
Assay [3] concerns the target RAC-gamma serine/threonine-protein kinase (Homo sapiens, UniProt Q9Y243). It counts as functional.
In assay [4] the target is STE20-like serine/threonine-protein kinase (Homo sapiens, UniProt Q9H2G2). The class given is functional.
In assay [5] the target is MAP/microtubule affinity-regulating kinase 3 (Homo sapiens, UniProt P27448). The class given is functional.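 Note: MARK3 affinity measured as one member of a kinome panel.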
Sequence of MAP/microtubule affinity-regulating kinase 3 (P27448 whole entry, canonical isoform): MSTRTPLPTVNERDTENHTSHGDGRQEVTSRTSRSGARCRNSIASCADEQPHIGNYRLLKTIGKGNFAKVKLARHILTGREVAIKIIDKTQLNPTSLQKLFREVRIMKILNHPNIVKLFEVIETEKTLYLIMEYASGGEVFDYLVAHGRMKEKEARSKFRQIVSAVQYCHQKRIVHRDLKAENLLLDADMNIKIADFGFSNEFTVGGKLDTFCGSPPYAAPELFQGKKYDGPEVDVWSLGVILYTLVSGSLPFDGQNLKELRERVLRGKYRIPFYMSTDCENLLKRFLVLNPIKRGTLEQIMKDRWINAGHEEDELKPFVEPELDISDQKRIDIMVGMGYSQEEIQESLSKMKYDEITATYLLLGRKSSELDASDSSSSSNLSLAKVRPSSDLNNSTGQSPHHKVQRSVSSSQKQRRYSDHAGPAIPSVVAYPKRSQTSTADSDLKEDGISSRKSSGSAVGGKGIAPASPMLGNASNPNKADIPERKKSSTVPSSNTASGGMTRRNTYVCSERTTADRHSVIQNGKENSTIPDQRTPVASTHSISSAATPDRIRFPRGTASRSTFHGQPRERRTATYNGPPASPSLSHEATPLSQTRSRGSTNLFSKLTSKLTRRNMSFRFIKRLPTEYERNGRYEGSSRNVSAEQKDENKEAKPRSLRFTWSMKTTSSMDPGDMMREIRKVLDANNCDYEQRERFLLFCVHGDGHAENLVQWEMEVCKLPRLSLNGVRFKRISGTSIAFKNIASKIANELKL
In assay [6] the target is Casein kinase I isoform gamma-1 (Homo sapiens, UniProt Q9HCP0). It counts as functional.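 Note: measured as the CSNK1G1 member of a kinome profiling panel.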
Sequence of Casein kinase I isoform gamma-1 (Q9HCP0 whole entry, canonical isoform): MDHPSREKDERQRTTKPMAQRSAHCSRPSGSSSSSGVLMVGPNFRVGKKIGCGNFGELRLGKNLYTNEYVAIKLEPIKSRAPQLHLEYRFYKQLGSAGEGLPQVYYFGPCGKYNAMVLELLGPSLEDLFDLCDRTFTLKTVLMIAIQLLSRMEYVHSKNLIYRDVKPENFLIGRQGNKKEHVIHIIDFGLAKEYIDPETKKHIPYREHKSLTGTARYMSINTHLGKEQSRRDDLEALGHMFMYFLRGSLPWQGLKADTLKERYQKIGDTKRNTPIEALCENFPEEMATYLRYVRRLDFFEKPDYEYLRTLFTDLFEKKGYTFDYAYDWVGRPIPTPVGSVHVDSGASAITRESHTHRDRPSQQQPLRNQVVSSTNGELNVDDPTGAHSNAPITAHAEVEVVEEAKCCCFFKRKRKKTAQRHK
For assay [7], the target named is Ribosomal protein S6 kinase beta-1 (Homo sapiens, UniProt P23443). The class given is functional.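 Note: measured as one member of a kinome-wide profiling panel.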
Sequence of Ribosomal protein S6 kinase beta-1 (P23443 whole entry): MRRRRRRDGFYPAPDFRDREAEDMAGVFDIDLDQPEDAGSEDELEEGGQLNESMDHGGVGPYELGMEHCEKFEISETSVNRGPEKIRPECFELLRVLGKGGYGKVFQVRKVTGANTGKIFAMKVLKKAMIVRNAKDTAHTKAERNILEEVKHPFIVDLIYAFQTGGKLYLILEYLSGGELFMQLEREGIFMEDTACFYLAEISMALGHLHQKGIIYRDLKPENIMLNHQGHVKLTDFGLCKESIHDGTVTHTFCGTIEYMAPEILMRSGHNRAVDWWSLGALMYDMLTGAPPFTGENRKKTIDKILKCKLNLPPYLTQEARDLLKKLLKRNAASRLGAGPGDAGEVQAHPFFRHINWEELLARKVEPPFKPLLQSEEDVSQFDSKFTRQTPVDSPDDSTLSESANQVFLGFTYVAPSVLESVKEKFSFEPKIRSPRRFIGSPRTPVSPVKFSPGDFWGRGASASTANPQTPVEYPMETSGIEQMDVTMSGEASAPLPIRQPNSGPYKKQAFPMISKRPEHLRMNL
The target of the next assay is SRSF protein kinase 1 (Homo sapiens, UniProt Q96SB4). It counts as functional.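 Note: measured as one member of a kinome-wide kinase profiling panel.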
Sequence of SRSF protein kinase 1 (Q96SB4 whole entry): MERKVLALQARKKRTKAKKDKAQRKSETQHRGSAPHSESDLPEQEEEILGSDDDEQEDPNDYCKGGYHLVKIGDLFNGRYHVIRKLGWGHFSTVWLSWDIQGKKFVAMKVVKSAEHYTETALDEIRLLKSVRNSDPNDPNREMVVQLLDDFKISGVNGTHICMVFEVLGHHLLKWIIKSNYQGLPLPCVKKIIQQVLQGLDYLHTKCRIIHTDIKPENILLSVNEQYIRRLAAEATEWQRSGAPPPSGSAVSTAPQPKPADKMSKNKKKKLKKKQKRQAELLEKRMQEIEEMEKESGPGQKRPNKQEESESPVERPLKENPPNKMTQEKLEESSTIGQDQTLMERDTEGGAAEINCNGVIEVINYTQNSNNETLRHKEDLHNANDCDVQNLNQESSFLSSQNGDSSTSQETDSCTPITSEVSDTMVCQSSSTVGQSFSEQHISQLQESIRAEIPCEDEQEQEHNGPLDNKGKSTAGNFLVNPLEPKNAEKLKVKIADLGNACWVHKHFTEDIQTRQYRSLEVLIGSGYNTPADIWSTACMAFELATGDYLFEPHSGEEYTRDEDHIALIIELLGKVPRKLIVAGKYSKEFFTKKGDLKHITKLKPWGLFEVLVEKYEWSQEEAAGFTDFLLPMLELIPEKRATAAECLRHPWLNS
Assay [8] concerns the target cAMP-dependent protein kinase catalytic subunit alpha (Homo sapiens, UniProt P17612). The class given is functional.
Assay [9] deals with Serine/threonine-protein kinase PLK4 (Homo sapiens, UniProt O00444). It counts as functional.
Sequence of Serine/threonine-protein kinase PLK4 (O00444 whole entry): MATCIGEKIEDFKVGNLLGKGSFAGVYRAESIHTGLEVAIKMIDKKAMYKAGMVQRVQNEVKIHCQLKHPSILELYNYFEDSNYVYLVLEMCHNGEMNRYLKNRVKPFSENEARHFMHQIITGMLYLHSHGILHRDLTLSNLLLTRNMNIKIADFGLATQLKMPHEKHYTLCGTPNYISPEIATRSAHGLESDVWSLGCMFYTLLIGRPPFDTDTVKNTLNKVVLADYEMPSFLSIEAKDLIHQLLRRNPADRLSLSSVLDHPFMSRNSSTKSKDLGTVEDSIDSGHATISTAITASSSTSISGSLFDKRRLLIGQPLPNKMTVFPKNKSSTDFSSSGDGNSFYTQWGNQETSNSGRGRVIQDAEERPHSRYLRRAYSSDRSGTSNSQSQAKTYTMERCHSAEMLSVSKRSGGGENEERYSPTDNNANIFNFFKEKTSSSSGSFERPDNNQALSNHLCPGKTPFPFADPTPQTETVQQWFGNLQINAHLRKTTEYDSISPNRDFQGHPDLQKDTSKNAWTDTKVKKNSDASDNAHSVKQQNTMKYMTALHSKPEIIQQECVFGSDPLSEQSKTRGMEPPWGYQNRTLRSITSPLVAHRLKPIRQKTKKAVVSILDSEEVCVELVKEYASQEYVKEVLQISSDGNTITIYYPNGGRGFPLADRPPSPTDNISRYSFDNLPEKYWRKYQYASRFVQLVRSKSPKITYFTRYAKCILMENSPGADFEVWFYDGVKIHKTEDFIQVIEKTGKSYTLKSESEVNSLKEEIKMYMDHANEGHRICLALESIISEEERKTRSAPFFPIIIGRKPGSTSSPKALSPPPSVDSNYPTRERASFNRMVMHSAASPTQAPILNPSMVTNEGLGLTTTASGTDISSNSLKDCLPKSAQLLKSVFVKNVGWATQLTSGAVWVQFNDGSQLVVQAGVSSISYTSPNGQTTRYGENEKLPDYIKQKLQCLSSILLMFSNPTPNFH
Assay [10] deals with Calcium/calmodulin-dependent protein kinase type 1 (Homo sapiens, UniProt Q14012). The class given is functional.
The target in assay [11] is Tyrosine-protein kinase JAK3 (Homo sapiens, UniProt P52333). The class given is functional.
Sequence of Tyrosine-protein kinase JAK3 (P52333 whole entry): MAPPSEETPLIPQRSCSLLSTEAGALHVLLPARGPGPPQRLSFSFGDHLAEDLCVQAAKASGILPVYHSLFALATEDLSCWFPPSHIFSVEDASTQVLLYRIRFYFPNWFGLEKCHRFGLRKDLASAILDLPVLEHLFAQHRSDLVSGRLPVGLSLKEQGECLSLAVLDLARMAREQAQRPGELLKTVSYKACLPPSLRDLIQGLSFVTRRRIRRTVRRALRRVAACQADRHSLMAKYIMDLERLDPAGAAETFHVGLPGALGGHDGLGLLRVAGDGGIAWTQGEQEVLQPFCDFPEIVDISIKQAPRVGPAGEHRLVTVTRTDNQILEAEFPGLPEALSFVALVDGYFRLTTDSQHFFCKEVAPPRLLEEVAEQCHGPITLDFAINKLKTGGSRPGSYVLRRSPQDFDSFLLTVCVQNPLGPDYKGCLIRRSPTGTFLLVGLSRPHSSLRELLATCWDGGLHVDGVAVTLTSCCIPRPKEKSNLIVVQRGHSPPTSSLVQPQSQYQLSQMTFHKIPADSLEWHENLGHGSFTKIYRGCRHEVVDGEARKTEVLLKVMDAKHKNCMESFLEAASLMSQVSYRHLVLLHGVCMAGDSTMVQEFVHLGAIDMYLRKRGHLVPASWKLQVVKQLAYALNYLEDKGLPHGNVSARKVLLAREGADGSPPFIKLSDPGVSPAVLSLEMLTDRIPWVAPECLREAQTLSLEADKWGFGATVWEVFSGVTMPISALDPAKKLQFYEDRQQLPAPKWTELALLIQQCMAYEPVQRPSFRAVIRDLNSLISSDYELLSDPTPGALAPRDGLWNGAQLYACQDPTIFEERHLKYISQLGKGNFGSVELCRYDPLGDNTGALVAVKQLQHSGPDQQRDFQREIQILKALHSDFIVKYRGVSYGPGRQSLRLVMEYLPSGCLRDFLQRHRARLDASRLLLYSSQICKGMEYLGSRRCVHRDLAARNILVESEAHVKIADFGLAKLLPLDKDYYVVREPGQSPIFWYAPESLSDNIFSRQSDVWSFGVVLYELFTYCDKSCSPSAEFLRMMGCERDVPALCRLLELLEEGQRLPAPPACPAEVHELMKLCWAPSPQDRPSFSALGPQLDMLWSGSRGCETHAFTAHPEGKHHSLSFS
Assay [12] is described as follows: growth suppression of beta-catenin-knockout colon cells, dose response, cell-based, HCT116, human colon tumor (AID 1045).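 Note: HCT116 colon tumor cells with beta catenin knocked out; cells exposed to compound for 60 hours.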 It counts as functional.
Assay [13] deals with T3, Heat shock factor protein 1 (Mus musculus, UniProt P38532).
T3 sequence (P38532 whole entry): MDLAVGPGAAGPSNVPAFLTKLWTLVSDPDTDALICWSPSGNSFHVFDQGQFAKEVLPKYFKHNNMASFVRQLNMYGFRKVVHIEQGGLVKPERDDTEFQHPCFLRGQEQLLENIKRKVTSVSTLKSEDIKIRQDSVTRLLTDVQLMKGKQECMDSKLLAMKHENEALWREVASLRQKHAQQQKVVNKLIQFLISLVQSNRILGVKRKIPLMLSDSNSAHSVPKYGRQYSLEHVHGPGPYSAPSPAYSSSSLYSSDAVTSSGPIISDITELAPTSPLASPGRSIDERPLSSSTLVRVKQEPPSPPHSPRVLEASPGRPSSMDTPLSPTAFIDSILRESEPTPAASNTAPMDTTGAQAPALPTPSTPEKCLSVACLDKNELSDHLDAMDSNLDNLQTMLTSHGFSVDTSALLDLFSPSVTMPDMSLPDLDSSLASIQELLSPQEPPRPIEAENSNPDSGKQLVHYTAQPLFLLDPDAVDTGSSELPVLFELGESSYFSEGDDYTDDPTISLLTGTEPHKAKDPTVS
The assay is described as follows: inhibition of MG132-induced HSE-luciferase signal, confirmation, cell-based, NIH3T3, luminescence, dose retest (AID 2382).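 Note: NIH3T3 fibroblasts with HSF1-driven luciferase reporter stressed by proteasome inhibitor MG132; luminescence from HSF1-driven luciferase expression after 8 hours of MG132 stress.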 The class given is functional.

The target of assay [14] is T4, Sentrin-specific protease 8 (Homo sapiens, UniProt Q96LD8).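 Note: kinetic enzyme assay of SENP8 cleaving a Nedd8 protein substrate, dose-response confirmation of screening hits.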
T4 sequence (Q96LD8 whole entry): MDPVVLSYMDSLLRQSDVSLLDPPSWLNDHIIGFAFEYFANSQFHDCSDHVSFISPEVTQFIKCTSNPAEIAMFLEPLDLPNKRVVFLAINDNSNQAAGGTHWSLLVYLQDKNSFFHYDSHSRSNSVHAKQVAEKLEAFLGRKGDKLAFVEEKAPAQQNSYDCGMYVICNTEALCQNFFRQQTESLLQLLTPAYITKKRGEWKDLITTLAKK
The class given is functional.

Sequence of RAC-gamma serine/threonine-protein kinase (Q9Y243 whole entry): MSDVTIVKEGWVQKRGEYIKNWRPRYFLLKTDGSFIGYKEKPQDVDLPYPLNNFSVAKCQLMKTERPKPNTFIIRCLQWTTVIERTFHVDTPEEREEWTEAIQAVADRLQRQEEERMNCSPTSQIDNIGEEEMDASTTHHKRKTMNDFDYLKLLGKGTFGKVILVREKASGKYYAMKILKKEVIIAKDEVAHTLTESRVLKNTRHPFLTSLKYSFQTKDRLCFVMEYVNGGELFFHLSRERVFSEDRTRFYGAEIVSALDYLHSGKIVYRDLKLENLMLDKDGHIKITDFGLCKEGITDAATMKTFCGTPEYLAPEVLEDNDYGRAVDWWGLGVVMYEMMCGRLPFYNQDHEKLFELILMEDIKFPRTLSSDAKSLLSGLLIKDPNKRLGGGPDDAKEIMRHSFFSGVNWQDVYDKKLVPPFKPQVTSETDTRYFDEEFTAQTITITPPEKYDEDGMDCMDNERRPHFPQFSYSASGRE

With `CC(=O)N(C1=C(Cl)C(=O)c2ccccc2C1=O)C1CCCCC1`, the IC50 in assay [1] was 19.5 µM (inactive); in [2], 745 nM (active). The EC50 at Streptokinase A was > 150 µM (not active).

On to `O=C1Nc2ccc3ncsc3c2C1=CNc1ccc(S(=O)(=O)Nc2ccccn2)cc1`, for which the Ki was > 10 µM (inactive) in assay [3]; 126 nM (active) in [4]; 39.8 nM (active) in assay [5]; 2.51 µM (active) in [6]; 126 nM (active) in [7]; 1 µM (active) on SRSF protein kinase 1. The Ki in assay [8] was 3.98 µM (active); in assay [9] it was 12.6 nM (active); in assay [10], > 1.26 µM (inactive); in assay [11], 25.1 nM (active).

For the compound `Cc1ccc(NC2=C/C(=N\S(=O)(=O)c3cccs3)c3ccccc3C2=O)c(C)c1`, the EC50 in assay [12] was 1.08 µM (active); in [13], 1.56 µM (active).

Take `COc1ccc(/C=N/NC(=O)c2nn(-c3ccccc3)c(=O)c3c(N)scc23)cc1`: the IC50 in assay [14] is 415 nM (active).

Broadly, the IC50 is the concentration at which inhibition is half-maximal. Usually EC50 stands for the concentration at which the effect is half-maximal. As a reminder, the Ki is a dissociation constant, usually derived from enzyme kinetics or from competition with a known ligand.
